Laboratory results: publication PMC7252619 (PLoS ONE, 2020)
Like-named read-outs stand apart in the source and are kept apart here.

Tests used:
Test in all cases: Kinase activity test (ReactionBiology), % enzyme activity relative to DMSO
Type in all cases: biochemical
DAPK1 = target: T1, DAPK1 (Homo sapiens, UniProt P53355); settings: DAPK1
T1 construct: purchased ReactionBiology

NEK2 = target: T2, NEK2 (Homo sapiens, UniProt P51955); settings: NEK2; for % Enzyme Activity (relative to DMSO controls), Data 1: replicate Data 1; for % Enzyme Activity (relative to DMSO controls), Data 2: replicate Data 2;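 for all read-outs here: FDA-approved drugs chosen by structure-based repositioning, each screened at 10 or 1 µM for kinase activity, expressed as percent of DMSO controls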
T2 construct: purchased ReactionBiology
T2 sequence (P51955 1-445): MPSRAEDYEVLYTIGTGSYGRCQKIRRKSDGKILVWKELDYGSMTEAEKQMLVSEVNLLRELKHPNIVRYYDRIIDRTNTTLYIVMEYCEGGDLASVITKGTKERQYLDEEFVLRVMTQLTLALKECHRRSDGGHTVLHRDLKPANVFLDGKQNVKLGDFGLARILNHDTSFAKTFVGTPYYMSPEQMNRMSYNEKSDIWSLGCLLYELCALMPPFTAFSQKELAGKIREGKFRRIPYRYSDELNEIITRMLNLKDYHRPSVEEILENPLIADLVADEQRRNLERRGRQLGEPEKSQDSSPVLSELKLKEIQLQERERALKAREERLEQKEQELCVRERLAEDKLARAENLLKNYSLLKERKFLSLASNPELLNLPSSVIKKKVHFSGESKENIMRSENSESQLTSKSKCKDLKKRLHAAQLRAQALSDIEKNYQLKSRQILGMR

VEGFR2 = VEGFR2 (Homo sapiens, UniProt P35968); set-up: purchased ReactionBiology; settings: VEGFR2; for % Enzyme Activity (relative to DMSO controls), Data 1: replicate Data 1; for % Enzyme Activity (relative to DMSO controls), Data 2: replicate Data 2;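 for all read-outs here: VEGFR2 was one member of a ten-kinase screening panel testing marketed FDA-approved drugs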
VEGFR2, sequence (P35968 20-1356): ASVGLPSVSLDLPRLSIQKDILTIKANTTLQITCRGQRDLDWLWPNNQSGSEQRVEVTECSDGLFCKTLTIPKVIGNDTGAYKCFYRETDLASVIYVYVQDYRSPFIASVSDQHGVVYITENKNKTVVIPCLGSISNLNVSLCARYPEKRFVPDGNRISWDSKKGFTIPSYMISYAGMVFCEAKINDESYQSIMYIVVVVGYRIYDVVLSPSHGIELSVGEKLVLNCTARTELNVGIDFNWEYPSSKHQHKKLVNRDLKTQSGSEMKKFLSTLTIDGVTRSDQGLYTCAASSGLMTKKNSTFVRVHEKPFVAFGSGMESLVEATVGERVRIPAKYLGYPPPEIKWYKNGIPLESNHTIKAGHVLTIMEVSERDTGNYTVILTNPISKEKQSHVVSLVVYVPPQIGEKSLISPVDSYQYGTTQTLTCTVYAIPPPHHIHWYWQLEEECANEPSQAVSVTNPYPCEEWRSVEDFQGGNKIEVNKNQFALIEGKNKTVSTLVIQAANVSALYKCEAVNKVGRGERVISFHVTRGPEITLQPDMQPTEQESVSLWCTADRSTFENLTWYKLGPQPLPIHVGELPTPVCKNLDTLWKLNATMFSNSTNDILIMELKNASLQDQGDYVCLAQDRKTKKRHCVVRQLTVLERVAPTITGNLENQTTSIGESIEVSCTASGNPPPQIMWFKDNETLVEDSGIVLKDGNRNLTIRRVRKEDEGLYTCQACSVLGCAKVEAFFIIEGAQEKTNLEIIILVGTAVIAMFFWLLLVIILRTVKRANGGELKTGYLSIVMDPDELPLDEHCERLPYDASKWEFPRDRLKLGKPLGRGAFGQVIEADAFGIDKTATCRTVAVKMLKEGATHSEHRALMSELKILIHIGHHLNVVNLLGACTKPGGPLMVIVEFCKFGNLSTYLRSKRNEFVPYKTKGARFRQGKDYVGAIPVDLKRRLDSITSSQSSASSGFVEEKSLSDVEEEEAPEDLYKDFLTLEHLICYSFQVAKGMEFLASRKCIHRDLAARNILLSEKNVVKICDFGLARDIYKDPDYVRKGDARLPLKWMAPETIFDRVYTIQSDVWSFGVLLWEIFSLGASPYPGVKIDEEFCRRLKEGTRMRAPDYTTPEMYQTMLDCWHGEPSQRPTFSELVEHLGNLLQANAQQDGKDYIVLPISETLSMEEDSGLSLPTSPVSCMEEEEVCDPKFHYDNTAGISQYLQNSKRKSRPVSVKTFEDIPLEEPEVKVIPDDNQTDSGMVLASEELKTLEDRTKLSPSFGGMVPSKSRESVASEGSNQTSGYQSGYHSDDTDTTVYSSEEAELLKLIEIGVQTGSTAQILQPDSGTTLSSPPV

CK1d = target: T3, CK1d (Homo sapiens, UniProt P48730); settings: CK1d
T3 construct: purchased ReactionBiology
T3 sequence (P48730 whole entry): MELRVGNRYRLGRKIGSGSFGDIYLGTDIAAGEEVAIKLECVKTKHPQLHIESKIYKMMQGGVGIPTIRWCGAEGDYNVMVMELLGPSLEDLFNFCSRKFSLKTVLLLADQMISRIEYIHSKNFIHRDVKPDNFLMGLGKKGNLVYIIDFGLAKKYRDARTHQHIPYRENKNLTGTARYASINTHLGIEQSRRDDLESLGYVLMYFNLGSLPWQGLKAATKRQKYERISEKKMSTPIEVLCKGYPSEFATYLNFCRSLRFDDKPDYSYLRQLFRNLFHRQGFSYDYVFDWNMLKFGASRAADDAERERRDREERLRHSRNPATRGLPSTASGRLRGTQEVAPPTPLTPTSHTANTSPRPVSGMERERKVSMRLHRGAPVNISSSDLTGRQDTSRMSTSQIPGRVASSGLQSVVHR

[1] = 1 uM, Average, read-out: % Enzyme Activity (relative to DMSO controls), Average
[2] = 1 uM, replicate Data 1, read-out: % Enzyme Activity (relative to DMSO controls), Data 1
[3] = 1 uM, replicate Data 2, read-out: % Enzyme Activity (relative to DMSO controls), Data 2
[4] = 10 uM, Average, read-out: % Enzyme Activity (relative to DMSO controls), Average
[5] = 10 uM, replicate Data 1, read-out: % Enzyme Activity (relative to DMSO controls), Data 1
[6] = 10 uM, replicate Data 2, read-out: % Enzyme Activity (relative to DMSO controls), Data 2
[7] = compound 1μM, relative to DMSO controls, read-out: % Enzyme activity at 1μM
[8] = compound 10μM, relative to DMSO controls, read-out: % Enzyme activity at 10μM

T1 sequence (P53355 whole entry): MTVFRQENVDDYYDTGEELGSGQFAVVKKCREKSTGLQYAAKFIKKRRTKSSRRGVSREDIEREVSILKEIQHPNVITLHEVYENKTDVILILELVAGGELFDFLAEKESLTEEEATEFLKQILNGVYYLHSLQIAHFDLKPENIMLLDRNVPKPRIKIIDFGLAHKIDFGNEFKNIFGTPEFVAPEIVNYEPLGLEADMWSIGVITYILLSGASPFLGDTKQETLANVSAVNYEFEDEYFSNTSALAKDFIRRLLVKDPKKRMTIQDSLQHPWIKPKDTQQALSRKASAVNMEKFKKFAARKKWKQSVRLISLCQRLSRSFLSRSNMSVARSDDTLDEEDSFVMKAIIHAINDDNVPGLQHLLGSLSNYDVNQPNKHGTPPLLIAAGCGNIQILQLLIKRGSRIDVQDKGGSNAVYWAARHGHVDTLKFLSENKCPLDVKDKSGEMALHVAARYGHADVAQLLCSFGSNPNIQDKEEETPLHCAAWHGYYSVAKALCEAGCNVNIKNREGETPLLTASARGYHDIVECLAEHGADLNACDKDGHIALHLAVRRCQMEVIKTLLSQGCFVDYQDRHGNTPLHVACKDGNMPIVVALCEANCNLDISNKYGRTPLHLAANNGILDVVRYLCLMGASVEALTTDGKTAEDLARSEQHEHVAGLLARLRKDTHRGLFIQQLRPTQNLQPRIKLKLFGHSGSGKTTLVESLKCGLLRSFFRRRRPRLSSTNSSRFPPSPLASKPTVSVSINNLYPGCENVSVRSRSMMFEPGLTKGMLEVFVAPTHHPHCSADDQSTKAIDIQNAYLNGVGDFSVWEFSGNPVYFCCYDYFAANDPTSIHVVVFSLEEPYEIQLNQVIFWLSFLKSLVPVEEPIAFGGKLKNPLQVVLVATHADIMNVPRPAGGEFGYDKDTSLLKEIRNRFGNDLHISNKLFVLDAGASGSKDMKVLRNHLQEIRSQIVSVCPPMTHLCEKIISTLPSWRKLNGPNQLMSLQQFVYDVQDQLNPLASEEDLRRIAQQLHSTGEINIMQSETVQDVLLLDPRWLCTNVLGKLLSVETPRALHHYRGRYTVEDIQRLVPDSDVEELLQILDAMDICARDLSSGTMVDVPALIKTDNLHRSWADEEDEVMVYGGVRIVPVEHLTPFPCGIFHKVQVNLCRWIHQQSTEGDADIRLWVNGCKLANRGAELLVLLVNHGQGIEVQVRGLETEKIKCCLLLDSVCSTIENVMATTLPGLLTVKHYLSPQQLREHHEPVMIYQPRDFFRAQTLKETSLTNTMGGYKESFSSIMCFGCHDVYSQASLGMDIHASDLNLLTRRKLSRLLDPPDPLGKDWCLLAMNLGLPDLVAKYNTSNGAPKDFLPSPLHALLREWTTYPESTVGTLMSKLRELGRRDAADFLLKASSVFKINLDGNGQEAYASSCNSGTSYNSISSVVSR

| Compound | % Enzyme Activity (relative to DMSO controls), Average (DAPK1; 1 uM, Average) | % Enzyme Activity (relative to DMSO controls), Data 1 (DAPK1; 1 uM, replicate Data 1) | % Enzyme Activity (relative to DMSO controls), Data 2 (DAPK1; 1 uM, replicate Data 2) | % Enzyme Activity (relative to DMSO controls), Average (DAPK1; 10 uM, Average) | % Enzyme Activity (relative to DMSO controls), Data 1 (DAPK1; 10 uM, replicate Data 1) | % Enzyme Activity (relative to DMSO controls), Data 2 (DAPK1; 10 uM, replicate Data 2) | also measured |
| --- | --- | --- | --- | --- | --- | --- | --- |
| NC[C@H](O)c1ccc(O)c(O)c1 [Norepinephrine] | 102.77% | 101.72% | 103.82% | 92.90% | 93.2% | 92.59% |  |
| Nc1nc2[nH]cnc2c(=S)[nH]1 [Thioguanine] |  |  |  |  |  |  | % Enzyme Activity (relative to DMSO controls), Average (NEK2; 1 uM): 92.40%; % Enzyme Activity (relative to DMSO controls), Data 1 (NEK2; 1 uM): 91.41%; % Enzyme Activity (relative to DMSO controls), Data 2 (NEK2; 1 uM): 93.38%; % Enzyme Activity (relative to DMSO controls), Average (NEK2; 10 uM): 107.92%; % Enzyme Activity (relative to DMSO controls), Data 1 (NEK2; 10 uM): 110.57%; % Enzyme Activity (relative to DMSO controls), Data 2 (NEK2; 10 uM): 105.26% |
| COC(=O)N[C@H](C(=O)N[C@@H](Cc1ccccc1)[C@@H](O)CN(Cc1ccc(-c2ccccn2)cc1)NC(=O)[C@@H](NC(=O)OC)C(C)(C)C)C(C)(C)C [Atazanavir] | 98.48% | 95.12% | 101.84% | 74.66% | 73.05% | 76.27% |  |
| CC(C)CN(C[C@@H](O)[C@H](Cc1ccccc1)NC(=O)O[C@H]1CO[C@H]2OCC[C@H]21)S(=O)(=O)c1ccc(N)cc1 [Darunavir] |  | 101.48% |  |  | 82.12% |  | % Enzyme Activity (relative to DMSO controls), Data 1 (VEGFR2; 1 uM): 105.45%; % Enzyme Activity (relative to DMSO controls), Data 1 (VEGFR2; 10 uM): 98.21%; % Enzyme Activity (relative to DMSO controls), Data 1 (CK1d; 1 uM, replicate Data 1): 116.81% |
| Acarbose | 112.14% | 116.25% | 108.03% | 96.08% | 99.05% | 93.1% |  |
| CN[C@H]1CC[C@@H](c2ccc(Cl)c(Cl)c2)c2ccccc21 [Sertraline] |  |  |  |  |  |  | % Enzyme Activity (relative to DMSO controls), Average (VEGFR2; 1 uM): 106.32%; % Enzyme Activity (relative to DMSO controls), Data 1 (VEGFR2; 1 uM): 107.12%; % Enzyme Activity (relative to DMSO controls), Data 2 (VEGFR2; 1 uM): 105.51%; % Enzyme Activity (relative to DMSO controls), Average (VEGFR2; 10 uM): 105.91%; % Enzyme Activity (relative to DMSO controls), Data 1 (VEGFR2; 10 uM): 107.3%; % Enzyme Activity (relative to DMSO controls), Data 2 (VEGFR2; 10 uM): 104.52%; % Enzyme Activity (relative to DMSO controls), Average (CK1d; 1 uM, Average): 106.53%; % Enzyme Activity (relative to DMSO controls), Data 1 (CK1d; 1 uM, replicate Data 1): 105.95%; % Enzyme Activity (relative to DMSO controls), Data 2 (CK1d; 1 uM, replicate Data 2): 107.11%; % Enzyme Activity (relative to DMSO controls), Average (CK1d; 10 uM, Average): 163.39%; % Enzyme Activity (relative to DMSO controls), Data 1 (CK1d; 10 uM, replicate Data 1): 106.22%; % Enzyme Activity (relative to DMSO controls), Data 2 (CK1d; 10 uM, replicate Data 2): 220.55% |
| C=C[C@H]1CN2CC[C@H]1C[C@@H]2[C@@H](O)c1ccnc2ccc(OC)cc12 [Quinidine] | 102.25% | 101.97% | 102.52% | 96.54% | 95.41% | 97.67% |  |
| N=C(N)c1ccc(OCCCCCOc2ccc(C(=N)N)cc2)cc1 [Pentamidine] |  |  |  |  |  | 88.42% | % Enzyme Activity (relative to DMSO controls), Data 2 (VEGFR2; 10 uM): 93.27% |
| C[C@@H]1O[C@@H]1P(=O)(O)O [Fosfomycin] | 101.25% | 100.97% | 101.52% | 92.74% | 95% | 90.48% |  |
| Cn1c(=O)c2[nH]cnc2n(C)c1=O [Theophylline] | 109.44% | 109.64% | 109.23% | 98.91% | 100.03% | 97.79% |  |
| Cc1ccnc2c1NC(=O)c1cccnc1N2C1CC1 [Nevirapine] | 112.57% | 101.89% | 123.25% | 95.31% | 95.47% | 95.14% |  |
| OC(Cn1cncn1)(Cn1cncn1)c1ccc(F)cc1F [Fluconazole] | 100.65% | 103.85% | 97.44% | 95.87% | 97.86% | 93.87% |  |
| O=C1C(O)=C([C@H]2CC[C@H](c3ccc(Cl)cc3)CC2)C(=O)c2ccccc21 [Atovaquone] | 96.25% | 96.85% | 95.64% | 91.80% | 90.59% | 93% |  |
| CC(C)(C)NC(=O)[C@@H]1C[C@@H]2CCCC[C@@H]2CN1C[C@@H](O)[C@H](Cc1ccccc1)NC(=O)[C@H](CC(N)=O)NC(=O)c1ccc2ccccc2n1 [Saquinavir, reference compound] |  |  |  |  |  |  | remaining activity at 1 µM (DAPK1; [1]): 87.1%; remaining activity at 1 µM (DAPK1; [2]): 88.8%; remaining activity at 1 µM (DAPK1; [3]): 85.3%; remaining activity at 10 µM (DAPK1; [4]): 27.8%; remaining activity at 10 µM (DAPK1; [5]): 27.8%; remaining activity at 10 µM (DAPK1; [6]): 27.8%; remaining activity at 1 µM (DAPK1; [7]): 87.1%; remaining activity at 10 µM (DAPK1; [8]): 27.8%; remaining activity at 1 µM (CK1d; [1]): 109%; remaining activity at 1 µM (CK1d; [2]): 107%; remaining activity at 1 µM (CK1d; [3]): 111%; remaining activity at 10 µM (CK1d; [4]): 121%; remaining activity at 10 µM (CK1d; [5]): 123%; remaining activity at 10 µM (CK1d; [6]): 119% |
| Cc1ccc(Cl)c(Nc2ccccc2C(=O)O)c1Cl [Meclofenamate] |  | 121.09% |  |  | 115.51% |  | % Enzyme Activity (relative to DMSO controls), Data 1 (VEGFR2; 1 uM): 108.3%; % Enzyme Activity (relative to DMSO controls), Data 1 (VEGFR2; 10 uM): 109.87%; % Enzyme Activity (relative to DMSO controls), Data 1 (CK1d; 1 uM, replicate Data 1): 125.84% |
| CN(C)CCOc1ccc(/C(=C(/CCCl)c2ccccc2)c2ccccc2)cc1 [Toremifene, reference compound] |  |  |  |  |  |  | remaining activity at 1 µM (DAPK1; [1]): 90.4%; remaining activity at 1 µM (DAPK1; [2]): 70.4%; remaining activity at 1 µM (DAPK1; [3]): 110%; remaining activity at 10 µM (DAPK1; [4]): 14.8%; remaining activity at 10 µM (DAPK1; [5]): 14.9%; remaining activity at 10 µM (DAPK1; [6]): 14.6%; remaining activity at 1 µM (DAPK1; [7]): 90.4%; remaining activity at 10 µM (DAPK1; [8]): 14.8% |
| CN1[C@@H]2CC[C@H]1C[C@@H](OC(=O)c1c[nH]c3ccccc13)C2 [Tropisetron] | 100.48% | 103.12% | 97.84% | 91.18% | 92.93% | 89.43% | % Enzyme Activity (relative to DMSO controls), Average (VEGFR2; 1 uM): 100.61%; % Enzyme Activity (relative to DMSO controls), Data 1 (VEGFR2; 1 uM): 99.56%; % Enzyme Activity (relative to DMSO controls), Data 2 (VEGFR2; 1 uM): 101.65%; % Enzyme Activity (relative to DMSO controls), Average (VEGFR2; 10 uM): 97.73%; % Enzyme Activity (relative to DMSO controls), Data 1 (VEGFR2; 10 uM): 102.27%; % Enzyme Activity (relative to DMSO controls), Data 2 (VEGFR2; 10 uM): 93.19% |
| Cc1ccc(Nc2c(F)cccc2Cl)c(CC(=O)O)c1 [Lumiracoxib] | 98.27% |  |  | 101.02% |  |  | % Enzyme Activity (relative to DMSO controls), Average (CK1d; 10 uM, Average): 99.41% |
